{"source": "patent US5384417A", "about": "“Heptitols” (priority 1994, dated 1995)", "assay_type_in_all_cases": "biochemical", "key": {"Golgi α-Mannosidase": {"target": "T1, Golgi α-Mannosidase (Homo sapiens, UniProt Q16706)", "T1 construct": "Human liver glycosidases were assayed; from tissue; host or cells: human liver", "T1 sequence (Q16706 1-1144)": "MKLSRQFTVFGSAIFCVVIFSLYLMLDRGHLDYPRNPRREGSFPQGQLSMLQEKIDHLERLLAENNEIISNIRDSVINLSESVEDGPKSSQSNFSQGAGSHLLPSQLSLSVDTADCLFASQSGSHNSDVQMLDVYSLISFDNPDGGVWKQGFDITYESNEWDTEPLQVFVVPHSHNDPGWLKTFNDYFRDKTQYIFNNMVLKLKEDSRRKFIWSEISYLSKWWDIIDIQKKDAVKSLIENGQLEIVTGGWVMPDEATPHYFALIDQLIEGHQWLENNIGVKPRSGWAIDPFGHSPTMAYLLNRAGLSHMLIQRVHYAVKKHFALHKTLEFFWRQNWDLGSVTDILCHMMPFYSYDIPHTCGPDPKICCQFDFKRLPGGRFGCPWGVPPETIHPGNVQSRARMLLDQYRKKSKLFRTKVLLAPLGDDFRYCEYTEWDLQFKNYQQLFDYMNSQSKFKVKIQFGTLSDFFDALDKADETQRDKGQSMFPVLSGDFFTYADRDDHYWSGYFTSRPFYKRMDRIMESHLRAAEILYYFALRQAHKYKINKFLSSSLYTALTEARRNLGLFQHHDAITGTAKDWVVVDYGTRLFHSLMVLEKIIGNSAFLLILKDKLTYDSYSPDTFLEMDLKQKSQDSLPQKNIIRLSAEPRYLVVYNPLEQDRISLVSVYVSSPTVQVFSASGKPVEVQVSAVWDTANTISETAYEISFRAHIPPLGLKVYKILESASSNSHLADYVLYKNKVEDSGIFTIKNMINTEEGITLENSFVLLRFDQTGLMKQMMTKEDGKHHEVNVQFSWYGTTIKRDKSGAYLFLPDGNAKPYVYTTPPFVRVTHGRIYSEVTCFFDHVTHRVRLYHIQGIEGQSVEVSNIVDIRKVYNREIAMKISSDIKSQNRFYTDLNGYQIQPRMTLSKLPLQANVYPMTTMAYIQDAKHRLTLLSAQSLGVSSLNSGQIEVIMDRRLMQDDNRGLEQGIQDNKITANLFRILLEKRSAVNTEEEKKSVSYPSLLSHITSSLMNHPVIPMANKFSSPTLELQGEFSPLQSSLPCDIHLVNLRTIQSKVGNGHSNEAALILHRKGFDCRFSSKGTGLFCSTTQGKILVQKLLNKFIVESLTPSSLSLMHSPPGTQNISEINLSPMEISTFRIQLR", "assay": "inhibition of human liver Golgi α-mannosidase", "conditions": "1 mM inhibitor; read-out: % Inhibition of Glycosidase Activity, α-Mannosidase Golgi", "description": "(§1) Human liver glycosidases were assayed in the absence and presence [1 mM] of each of the potential inhibitors, using the appropriate buffered 4-methylumbelliferyl glycosides as substrates, as previously described.^17 See Table I, below."}, "β-Mannosidase": {"target": "T2, β-Mannosidase (Homo sapiens, UniProt O00462)", "T2 construct": "Human liver glycosidases were assayed; from tissue; host or cells: human liver", "T2 sequence (O00462 18-879)": "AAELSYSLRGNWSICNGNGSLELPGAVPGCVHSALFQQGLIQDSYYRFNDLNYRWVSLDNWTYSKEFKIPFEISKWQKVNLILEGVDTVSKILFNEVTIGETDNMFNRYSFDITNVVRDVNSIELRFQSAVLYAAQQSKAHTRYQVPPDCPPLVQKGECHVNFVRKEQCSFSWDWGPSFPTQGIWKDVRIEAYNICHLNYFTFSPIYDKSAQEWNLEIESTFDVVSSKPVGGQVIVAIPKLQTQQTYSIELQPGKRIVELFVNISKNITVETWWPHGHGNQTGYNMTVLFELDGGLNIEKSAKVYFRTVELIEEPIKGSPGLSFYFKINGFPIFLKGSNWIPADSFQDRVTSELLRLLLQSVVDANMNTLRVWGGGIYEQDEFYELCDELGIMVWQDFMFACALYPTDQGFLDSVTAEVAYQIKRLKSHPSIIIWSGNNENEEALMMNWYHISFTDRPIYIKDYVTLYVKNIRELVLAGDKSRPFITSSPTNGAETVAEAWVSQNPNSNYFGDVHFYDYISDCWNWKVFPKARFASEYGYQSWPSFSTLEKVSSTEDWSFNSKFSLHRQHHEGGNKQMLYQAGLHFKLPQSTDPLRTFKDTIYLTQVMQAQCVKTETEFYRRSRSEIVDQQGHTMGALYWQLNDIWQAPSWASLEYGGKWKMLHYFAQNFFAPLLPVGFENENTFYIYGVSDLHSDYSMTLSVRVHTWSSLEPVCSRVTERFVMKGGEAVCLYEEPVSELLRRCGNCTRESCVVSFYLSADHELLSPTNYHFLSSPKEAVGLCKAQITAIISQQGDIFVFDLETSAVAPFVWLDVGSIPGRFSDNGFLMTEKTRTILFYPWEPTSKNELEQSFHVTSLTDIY", "assay": "inhibition of human liver β-mannosidase", "conditions": "read-out: % Inhibition of Glycosidase Activity, β-Mannosidase", "description": "as §1"}, "α-Glucosidase": {"tested_on": "α-Glucosidase", "assay": "inhibition of human liver α-glucosidase", "conditions": "1 mM inhibitor", "description": "as §1"}, "β-Galactosidase": {"target": "T3, β-Galactosidase (Homo sapiens, UniProt P16278)", "T3 construct": "Human liver glycosidases were assayed; from tissue; host or cells: human liver", "T3 sequence (P16278 29-677)": "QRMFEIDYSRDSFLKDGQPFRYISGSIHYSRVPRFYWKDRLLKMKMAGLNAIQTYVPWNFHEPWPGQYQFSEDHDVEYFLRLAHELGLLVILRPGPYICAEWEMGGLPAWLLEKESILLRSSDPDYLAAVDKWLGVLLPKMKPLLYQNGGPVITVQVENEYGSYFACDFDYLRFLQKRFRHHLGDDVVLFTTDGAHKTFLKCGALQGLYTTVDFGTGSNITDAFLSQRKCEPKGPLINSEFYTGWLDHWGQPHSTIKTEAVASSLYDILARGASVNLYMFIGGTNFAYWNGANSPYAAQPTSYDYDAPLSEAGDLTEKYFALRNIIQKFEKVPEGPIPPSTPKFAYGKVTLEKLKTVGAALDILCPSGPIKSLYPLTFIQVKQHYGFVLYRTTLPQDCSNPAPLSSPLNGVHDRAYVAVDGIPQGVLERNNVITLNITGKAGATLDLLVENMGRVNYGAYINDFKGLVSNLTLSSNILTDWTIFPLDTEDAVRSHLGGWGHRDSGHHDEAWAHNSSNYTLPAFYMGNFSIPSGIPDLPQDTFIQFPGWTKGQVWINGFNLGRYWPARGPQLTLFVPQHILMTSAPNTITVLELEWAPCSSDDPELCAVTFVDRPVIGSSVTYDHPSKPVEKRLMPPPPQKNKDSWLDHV", "assay": "inhibition of human liver β-galactosidase", "conditions": "1 mM inhibitor; read-out: % Inhibition of Glycosidase Activity, β-Galactosidase", "description": "as §1"}, "α-Arabinosidase": {"tested_on": "α-Arabinosidase", "assay": "inhibition of human liver α-arabinosidase", "conditions": "1 mM inhibitor", "description": "as §1"}}, "note": "Where two headings read alike, the source gives them in different places."}
{"molecule": "OC[C@H]1N[C@H](CO)[C@@H](O)C(O)[C@@H]1O", "note": "(some centres unmarked) [αHomoDMJ (2)]", "values": [{"measurement": "inhibition at 1000 µM", "setting": "Golgi α-Mannosidase", "value": 56, "unit": "%"}, {"measurement": "inhibition at 1000 µM", "setting": "β-Mannosidase; 1 mM inhibitor", "value": 0, "unit": "%"}, {"measurement": "% Inhibition of Glycosidase Activity, α-Glucosidase", "setting": "α-Glucosidase", "value": 4, "unit": "%"}, {"measurement": "inhibition at 1000 µM", "setting": "β-Galactosidase", "value": 0, "unit": "%"}, {"measurement": "% Inhibition of Glycosidase Activity, α-Arabinosidase", "setting": "α-Arabinosidase", "value": 0, "unit": "%"}]}
{"molecule": "OC[C@@H](O)[C@H]1N[C@H](CO)[C@@H](O)[C@H]1O", "note": "[αHomoDIM (4), 2,5-dideoxy-2,5-imino-D-glycero-D-talo-heptitol]", "values": [{"measurement": "inhibition at 1000 µM", "setting": "Golgi α-Mannosidase", "value": 92, "unit": "%"}, {"measurement": "inhibition at 1000 µM", "setting": "β-Mannosidase; 1 mM inhibitor", "value": 18, "unit": "%"}, {"measurement": "% Inhibition of Glycosidase Activity, α-Glucosidase", "setting": "α-Glucosidase", "value": 12, "unit": "%"}, {"measurement": "inhibition at 1000 µM", "setting": "β-Galactosidase", "value": 35, "unit": "%"}, {"measurement": "% Inhibition of Glycosidase Activity, α-Arabinosidase", "setting": "α-Arabinosidase", "value": 25, "unit": "%"}]}
{"molecule": "NC[C@H]1O[C@H]([C@H](O)CO)[C@H](O)[C@@H]1O", "note": "[Manhepamine (5), 1-amino-2,5-anhydro-1-deoxy-D-glycero-D-talo-heptitol]", "values": [{"measurement": "inhibition at 1000 µM", "setting": "β-Mannosidase; 1 mM inhibitor", "value": 3, "unit": "%"}, {"measurement": "% Inhibition of Glycosidase Activity, α-Glucosidase", "setting": "α-Glucosidase", "value": 0, "unit": "%"}, {"measurement": "inhibition at 1000 µM", "setting": "β-Galactosidase", "value": 0, "unit": "%"}, {"measurement": "% Inhibition of Glycosidase Activity, α-Arabinosidase", "setting": "α-Arabinosidase", "value": 0, "unit": "%"}]}
{"molecule": "OC[C@H]1NC[C@@H](O)[C@@H](O)[C@@H]1O", "note": "[DMJ (1), deoxymannojirimycin]", "values": [{"measurement": "inhibition at 1000 µM", "setting": "Golgi α-Mannosidase", "value": 45, "unit": "%"}, {"measurement": "inhibition at 1000 µM", "setting": "β-Mannosidase", "value": 0, "unit": "%"}, {"measurement": "% Inhibition of Glycosidase Activity, α-Glucosidase", "setting": "α-Glucosidase", "value": 21, "unit": "%"}, {"measurement": "% Inhibition of Glycosidase Activity, α-Arabinosidase", "setting": "α-Arabinosidase", "value": 5, "unit": "%"}]}
{"molecule": "OC[C@@H](O)[C@H]1NC[C@@H](O)[C@H]1O", "note": "[DIM (3)]", "values": [{"measurement": "inhibition at 1000 µM", "setting": "Golgi α-Mannosidase", "value": 96, "unit": "%"}, {"measurement": "inhibition at 1000 µM", "setting": "β-Mannosidase; 1 mM inhibitor", "value": 0, "unit": "%"}, {"measurement": "% Inhibition of Glycosidase Activity, α-Glucosidase", "setting": "α-Glucosidase", "value": 0, "unit": "%"}, {"measurement": "inhibition at 1000 µM", "setting": "β-Galactosidase", "value": 76, "unit": "%"}, {"measurement": "% Inhibition of Glycosidase Activity, α-Arabinosidase", "setting": "α-Arabinosidase", "value": 66, "unit": "%"}]}
